# Laboratory results reported in patent US6413607B1, “Cyanine dyes” (Kabushiki Kaisha Hayashibara Seibutsu Kagaku Kenkyujo, priority 1999, dated 2002).
# Like-named read-outs stand apart in the source and are kept apart here.
# Assays:
# Assay type in all cases: physicochemical
# [1] = Light characteristics: visible absorption spectrum in methanol and as thin layer over glass; details: for Maximum absorption (nm) CH3OH: dissolved in methanol; for Maximum absorption (nm) Thin Layer: formed into layer over glass; for Shift of absorption maximum compared with conventional related compounds: thin layer, in words
# Procedure: The cyanine dyes as listed in Table 1 of the present invention and known compounds represented by Chemical Formulae 33 and 34 as controls were measured for visible absorption spectrum when dissolved in methanol and formed into layers over glasses.
# [2] = Solubility of cyanine dye in TFP; details: in TFP at 20° C.
# Procedure: For the cyanine dyes in Table 1, they were measured for solubility in TFP at 20° C.
# When coating over the substrates for optical recording media, the cyanine dyes are generally prepared into 0.1-10 w/w % solutions.
# [3] = Decomposition point by DTA and TGA; details: for Decomposition point (° C.): temperature increase 10° C./min; for Decomposability at temperatures around decomposition point / Rapidity of decomposition among Chemical Formulae 1, 4 and 6 to 8: in words
# Description: An adequate amount of either of the cyanine dyes in Table 1 as a test specimen was placed in a vessel and subjected to conventional differential thermal analysis (hereinafter abbreviated as “DTA”) and thermogravimetric analysis (hereinafter abbreviated as “TGA”) using “MODEL TG/DTA 220”, a digital thermo analyzer commercialized by Seiko Instruments Inc., Tokyo, Japan, to determine the melting point, i.e., a temperature at which the cyanine dyes as test specimens begin to absorb heat on […], and to determine the decomposition point, i.e., a temperature at which the cyanine dyes as test specimens begin to lose weight on […]. In parallel, conventional related compounds represented by Chemical Formulae 33 and 34 were analyzed similarly as above. FIGS. 2 and 3 are respectively the results of the cyanine dye represented by Chemical Formula 4 of the present invention and conventional related compound represented by Chemical Formula 34. In DTA and TGA, the environmental temperature was set to an increasing temperature mode at a rate of 10° C./min.
# As evident from Table 1 and FIGS. 2 and 3, all the conventional related compounds had melting points and decomposition points which were different from each other, and very slowly decomposed at temperatures around their decomposition points. […] Most specifically, conventional known compounds had both melting points and decomposition points which were different from each other, i.e., the difference ranged from 17 to 108° C., while most of the cyanine dyes of the present invention had decomposition points which were undistinguishable from their melting points or had only the decomposition points.
# [4] = Decomposition rate: differential calorimetric curve (DSC), half value width; details: for Calorific value / Decomposition initiating point / Decomposition peak point / Half value width: DSC, 10° C./min; for Calorific value / Decomposition initiating point / Decomposition peak point: nitrogen atmosphere; for Half value width: width of decomposition peak at half calorific value, nitrogen
# Procedure: For the cyanine dyes represented by Chemical Formulae 4, 6 and 8 of the present invention, they were in a usual manner examined for differential calorimetric curve when heated under an increasing temperature rate of 10° C./min and nitrogen atmospheric conditions using “MODEL DSC220U”, a digital thermo analyzer commercialized by Seiko Instruments Inc., Tokyo, Japan. In parallel, conventional cyanine dye represented by Chemical Formula 33 was examined for differential calorimetric curve similarly as above. FIGS. 4 and 5 are respectively differential calorimetric curves for the cyanine dyes represented by Chemical Formulae 4 and 33.
# Based on the results of the differential calorimetric curves, the half calorific vallues at descomposition peaks for each cyanine dyes were determined, and the thermal difference between the two points, having the determined half calorific values at both ends of each descomposition peaks (hereinafter designated as “a half value width”), was determined.
# As evident from the results in Table 2 and FIGS. 4 and 5, the cyanine dyes of the present invention instantly and promptly decomposed in spite of their substantially the same calorific-values as compared with conventional one. […] Similarly as in conventional related compounds represented by Formulae 33 and 34, dyes with a relatively-slow decomposition rate are substantially difficult to form stable minute pits at a relatively-high density on a restricted recording surface of high-density optical recording media such as DVD-Rs, as mentioned above. Varying depending on glass transition temperature of substrate, when used as a light absorbent in optical recording media, dyes with a lower decomposition point can be generally used to write information by using a lower-power laser beam as a merit, however, as a demerit, when exposed to laser beam for a relatively-long period of time on reading, the dyes tend to accumulate heat and deform parts around pits and other parts free of pit on recording surfaces, resulting in large jitters and reading errors. The cyanine dyes of the present invention substantially absorb a visible light with a wavelength around 650 nm when formed into a thin layer, have decomposition points which are undistinguishable from their melting points or only have the decomposition points of relatively-high temperatures, and have an outstandingly-high decomposition rate at around the decomposition points. These characteristics mean that high-density optical recording media, having a relatively-small jitter, insubstantial reading error, and satisfactory stability of exposure to environmental light such as reading light and natural light, can be obtained by using the cyanine dyes of the present invention as light absorbents. The reason of why the half value width was employed as an index for the decomposability in this example was due to the fact that it can effectively evaluate the decomposition rate of test specimens.
SMILES,Maximum absorption (nm) CH3OH [1] [nm],Maximum absorption (nm) Thin Layer [1] [nm],Solubility [2] [mg/mL],Decomposition point (° C.) [3] [°C],Calorific value [4] [mJ/mg],Decomposition initiating point [4] [°C],Decomposition peak point [4] [°C],Half value width [4] [°C],Shift of absorption maximum compared with conventional related compounds [1],"Solubility ([2]; organic solvent or mixture, read-out: Solubility) [mg/mL]",Decomposability at temperatures around decomposition point [3],"Rapidity of decomposition among Chemical Formulae 1, 4 and 6 to 8 [3]",Half value width as level of that of conventional cyanine dye ([4]; relative to Chemical Formula 33)
CCCCN1C(=CC=CC2=[N+](C)c3ccc(S(=O)(=O)N(CC)CC)cc3C2(C)C)C(C)(C)c2c1ccc1ccccc21.O=[N+]([O-])c1ccc2c(c1)N=Nc1c(ccc3ccccc13)[O][Ni-]1([O]2)[O]c2ccc([N+](=O)[O-])cc2N=Nc2c(ccc3ccccc23)[O]1 [Chemical Formula 26],570,594,127,257.3,,,,,,,,,
"CCCCN1/C(=C/C=C/C2=[N+](CCCC)c3ccccc3C2(C)C)C(C)(C)c2c1ccc1ccccc21 [Chemical Formula 33, reference compound]",568,600,,268.1,1467,255.4,297.4,49.9,,,,,
CCN1C(=CC=CC2=[N+](CC)c3ccc([N+](=O)[O-])cc3C2(C)C)C(C)(C)c2ccc3ccccc3c21.[O-][Cl+3]([O-])([O-])[O-] [Chemical Formula 15],562,617,229,270.7,,,,,shifted their absorption maxima to longer wavelengths by a large margin,,,,
CCCCN1C(=CC=CC2=[N+](C)c3ccc(S(=O)(=O)N(CC)CC)cc3C2(C)C)C(C)(C)c2c1ccc1ccccc21.F[P-](F)(F)(F)(F)F [Chemical Formula 23],591,591,>200,273.5,,,,,,,,,
CN1C(=CC=CC2=[N+](C)c3ccc([N+](=O)[O-])cc3C2(C)C)C(C)(C)c2c1ccc1ccccc21 [Chemical Formula 1],573,609,,,,,,,shifted their absorption maxima to longer wavelengths by a large margin,36,instantly decomposed at once,decomposed most rapidly,
CCCCN1C(=CC=CC2=[N+](CCCC)c3ccc([N+](=O)[O-])cc3C2(C)C)C(C)(C)c2c1ccc1ccccc21.[O-][Cl+3]([O-])([O-])[O-] [Chemical Formula 8],577,609,245,262.4,1663,249.9,273.5,32.2,shifted their absorption maxima to longer wavelengths by a large margin,,,,
CCCCN1C(=CC=CC2=[N+](C)c3ccc(S(=O)(=O)N(CC)CC)cc3C2(C)C)C(C)(C)c2c1ccc1ccccc21.CCN(CC)c1ccc2c(c1)[O][Co-]1([O]c3ccc([N+](=O)[O-])cc3N=N2)[O]c2ccc([N+](=O)[O-])cc2N=Nc2ccc(N(CC)CC)cc2[O]1 [Chemical Formula 24],538,556,197,,,,,,,,,,
CCCCN1C(=CC=CC2=[N+](C)c3ccc([N+](=O)[O-])cc3C2(C)C)C(C)(C)c2c1ccc1ccccc21.CCN(CC)c1ccc2c(c1)[O][Co-]1([O]c3ccc([N+](=O)[O-])cc3N=N2)[O]c2ccc([N+](=O)[O-])cc2N=Nc2ccc(N(CC)CC)cc2[O]1 [Chemical Formula 3],540,557,22,271.3,,,,,,,,,
CCCCN1C(=CC=CC2=[N+](CCC)c3ccc([N+](=O)[O-])cc3C2(C)C)C(C)(C)c2c1ccc1ccccc21.[O-][Cl+3]([O-])([O-])[O-] [Chemical Formula 7],577,609,210,261.2,,,,,shifted their absorption maxima to longer wavelengths by a large margin,,,decomposed most rapidly,
CCN1C(=CC=CC2=[N+](CC)c3ccc(S(=O)(=O)N(CC)CC)cc3C2(C)C)C(C)(C)c2c1ccc1ccccc21.[O-][Cl+3]([O-])([O-])[O-] [Chemical Formula 27],571,592,>200,,,,,,,,,,
"CCCCN1/C(=C/C=C/C2=[N+](CCCC)c3ccc(C)cc3C2(C)C)C(C)(C)c2c1ccc1ccccc21 [Chemical Formula 34, reference compound]",574,599,,267,,,,,,,,,
CCN1C(=CC=CC2=[N+](CC)c3ccc([N+](=O)[O-])cc3C2(C)C)C(C)(C)c2c1ccc1ccccc21.[O-][Cl+3]([O-])([O-])[O-] [Chemical Formula 4],576,609,126,,1826,295.8,298.6,7.7,shifted their absorption maxima to longer wavelengths by a large margin,,instantly decomposed at once,decomposed most rapidly,⅙
CCCN1C(=CC=CC2=[N+](CCC)c3ccc([N+](=O)[O-])cc3C2(C)C)C(C)(C)c2c1ccc1ccccc21.[O-][Cl+3]([O-])([O-])[O-] [Chemical Formula 6],578,609,164,,1827,279.5,285.5,13.2,shifted their absorption maxima to longer wavelengths by a large margin,,,decomposed most rapidly,
